# Results reported in PubChem BioAssay (NCI).
#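 Assay format: 96-well plates, 48-hour exposure. TGI: total growth inhibition.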
# How the values were obtained:
# Experiment in all cases: growth of human tumour cells (NCI), 48 h
# 786-0 renal = tested on: 786-0 renal
# A498 renal = tested on: A498 renal
# A549 NSCLC = tested on: A549 NSCLC
# ACHN renal = tested on: ACHN renal
# CAKI-1 renal = tested on: CAKI-1 renal
# CCRF-CEM leukemia = tested on: CCRF-CEM leukemia
# COLO 205 colon = tested on: COLO 205 colon
# DU-145 prostate = tested on: DU-145 prostate
# EKVX NSCLC = tested on: EKVX NSCLC
# HCC-2998 colon = tested on: HCC-2998 colon
# HCT-116 colon = tested on: HCT-116 colon
# HCT-15 colon = tested on: HCT-15 colon
# HL-60(TB) leukemia = tested on: HL-60(TB) leukemia
# HOP-62 NSCLC = tested on: HOP-62 NSCLC
# HOP-92 NSCLC = tested on: HOP-92 NSCLC
# HS 578T breast = tested on: HS 578T breast
# HT29 colon = tested on: HT29 colon
# IGROV1 ovarian = tested on: IGROV1 ovarian
# K-562 leukemia = tested on: K-562 leukemia
# KM12 colon = tested on: KM12 colon
# LOX IMVI melanoma = tested on: LOX IMVI melanoma
# M14 melanoma = tested on: M14 melanoma
# MALME-3M melanoma = tested on: MALME-3M melanoma
# MCF7 breast = tested on: MCF7 breast
# MDA-MB-231 breast = tested on: MDA-MB-231 breast
# MDA-MB-435 = tested on: MDA-MB-435
# MDA-N = tested on: MDA-N
# MOLT-4 leukemia = tested on: MOLT-4 leukemia
# NCI-H226 lung = tested on: NCI-H226 lung
# NCI-H23 lung = tested on: NCI-H23 lung
# NCI-H460 lung = tested on: NCI-H460 lung
# NCI-H522 lung = tested on: NCI-H522 lung
# NCI/ADR-RES ovarian = tested on: NCI/ADR-RES ovarian
# OVCAR-3 ovarian = tested on: OVCAR-3 ovarian
# OVCAR-4 ovarian = tested on: OVCAR-4 ovarian
# OVCAR-5 ovarian = tested on: OVCAR-5 ovarian
# OVCAR-8 ovarian = tested on: OVCAR-8 ovarian
# PC-3 prostate = tested on: PC-3 prostate
# RPMI-8226 leukemia = tested on: RPMI-8226 leukemia
# RXF 393 renal = tested on: RXF 393 renal
# SF-268 CNS = tested on: SF-268 CNS
# SF-295 CNS = tested on: SF-295 CNS
# SF-539 CNS = tested on: SF-539 CNS
# SK-MEL-28 melanoma = tested on: SK-MEL-28 melanoma
# SK-MEL-5 melanoma = tested on: SK-MEL-5 melanoma
# SK-OV-3 ovarian = tested on: SK-OV-3 ovarian
# SN12C renal = tested on: SN12C renal
# SNB-19 CNS = tested on: SNB-19 CNS
# SNB-75 CNS = tested on: SNB-75 CNS
# SR leukemia = tested on: SR leukemia
# SW-620 colon = tested on: SW-620 colon
# TK-10 renal = tested on: TK-10 renal
# U251 CNS = tested on: U251 CNS
# UACC-257 melanoma = tested on: UACC-257 melanoma
# UACC-62 melanoma = tested on: UACC-62 melanoma
# UO-31 renal = tested on: UO-31 renal
# BT-549 breast = tested on: BT-549 breast
# SK-MEL-2 melanoma = tested on: SK-MEL-2 melanoma
# T-47D breast = tested on: T-47D breast
structure (smiles),measurement,setting,value
COC(=O)C1(C(=O)OC)CC(=O)c2c(OC(=O)c3cccc(OC)c3C#N)ccc(OC(=O)c3cccc(OC)c3C#N)c2C1,TGI,786-0 renal,> 100 µM
same,TGI,A498 renal,> 100 µM
same,TGI,A549 NSCLC,> 100 µM
same,TGI,ACHN renal,> 100 µM
same,TGI,CAKI-1 renal,> 100 µM
same,TGI,CCRF-CEM leukemia,> 100 µM
same,TGI,COLO 205 colon,> 100 µM
same,TGI,DU-145 prostate,> 100 µM
same,TGI,EKVX NSCLC,> 100 µM
same,TGI,HCC-2998 colon,> 100 µM
same,TGI,HCT-116 colon,> 100 µM
same,TGI,HCT-15 colon,> 100 µM
same,TGI,HL-60(TB) leukemia,> 100 µM
same,TGI,HOP-62 NSCLC,> 100 µM
same,TGI,HOP-92 NSCLC,> 100 µM
same,TGI,HS 578T breast,> 100 µM
same,TGI,HT29 colon,> 100 µM
same,TGI,IGROV1 ovarian,> 100 µM
same,TGI,K-562 leukemia,> 100 µM
same,TGI,KM12 colon,> 100 µM
same,TGI,LOX IMVI melanoma,> 100 µM
same,TGI,M14 melanoma,> 100 µM
same,TGI,MALME-3M melanoma,> 100 µM
same,TGI,MCF7 breast,> 100 µM
same,TGI,MDA-MB-231 breast,> 100 µM
same,TGI,MDA-MB-435,> 100 µM
same,TGI,MDA-N,> 100 µM
same,TGI,MOLT-4 leukemia,> 100 µM
same,TGI,NCI-H226 lung,> 100 µM
same,TGI,NCI-H23 lung,> 100 µM
same,TGI,NCI-H460 lung,> 100 µM
same,TGI,NCI-H522 lung,> 100 µM
same,TGI,NCI/ADR-RES ovarian,> 100 µM
same,TGI,OVCAR-3 ovarian,> 100 µM
same,TGI,OVCAR-4 ovarian,> 100 µM
same,TGI,OVCAR-5 ovarian,> 100 µM
same,TGI,OVCAR-8 ovarian,> 100 µM
same,TGI,PC-3 prostate,> 100 µM
same,TGI,RPMI-8226 leukemia,> 100 µM
same,TGI,RXF 393 renal,> 100 µM
same,TGI,SF-268 CNS,> 100 µM
same,TGI,SF-295 CNS,> 100 µM
same,TGI,SF-539 CNS,> 100 µM
same,TGI,SK-MEL-28 melanoma,> 100 µM
same,TGI,SK-MEL-5 melanoma,> 100 µM
same,TGI,SK-OV-3 ovarian,> 100 µM
same,TGI,SN12C renal,> 100 µM
same,TGI,SNB-19 CNS,> 100 µM
same,TGI,SNB-75 CNS,> 100 µM
same,TGI,SR leukemia,> 100 µM
same,TGI,SW-620 colon,> 100 µM
same,TGI,TK-10 renal,> 100 µM
same,TGI,U251 CNS,> 100 µM
same,TGI,UACC-257 melanoma,> 100 µM
same,TGI,UACC-62 melanoma,> 100 µM
same,TGI,UO-31 renal,> 100 µM
CC(NC(=O)OC(C)(C)C)C(=O)NC(Cc1ccccc1)C(=O)NCC(=O)ON=C1CCCC1 (configuration not stated),TGI,786-0 renal,> 100 µM
same,TGI,A498 renal,> 100 µM
same,TGI,A549 NSCLC,> 100 µM
same,TGI,ACHN renal,> 100 µM
same,TGI,BT-549 breast,> 100 µM
same,TGI,CAKI-1 renal,> 100 µM
same,TGI,CCRF-CEM leukemia,> 100 µM
same,TGI,COLO 205 colon,> 100 µM
same,TGI,DU-145 prostate,> 100 µM
same,TGI,EKVX NSCLC,> 100 µM
same,TGI,HCC-2998 colon,> 100 µM
same,TGI,HCT-116 colon,> 100 µM
same,TGI,HCT-15 colon,> 100 µM
same,TGI,HL-60(TB) leukemia,> 100 µM
same,TGI,HOP-62 NSCLC,> 100 µM
same,TGI,HOP-92 NSCLC,> 100 µM
same,TGI,HT29 colon,> 100 µM
same,TGI,IGROV1 ovarian,> 100 µM
same,TGI,K-562 leukemia,> 100 µM
same,TGI,KM12 colon,> 100 µM
same,TGI,LOX IMVI melanoma,> 100 µM
same,TGI,M14 melanoma,> 100 µM
same,TGI,MALME-3M melanoma,> 100 µM
same,TGI,MCF7 breast,> 100 µM
same,TGI,MDA-MB-231 breast,> 100 µM
same,TGI,MDA-MB-435,> 100 µM
same,TGI,MDA-N,> 100 µM
same,TGI,MOLT-4 leukemia,> 100 µM
same,TGI,NCI-H226 lung,> 100 µM
same,TGI,NCI-H23 lung,> 100 µM
same,TGI,NCI-H460 lung,> 100 µM
same,TGI,NCI-H522 lung,> 100 µM
same,TGI,NCI/ADR-RES ovarian,> 100 µM
same,TGI,OVCAR-3 ovarian,> 100 µM
same,TGI,OVCAR-4 ovarian,> 100 µM
same,TGI,OVCAR-5 ovarian,> 100 µM
same,TGI,OVCAR-8 ovarian,> 100 µM
same,TGI,PC-3 prostate,> 100 µM
same,TGI,RPMI-8226 leukemia,> 100 µM
same,TGI,RXF 393 renal,> 100 µM
same,TGI,SF-268 CNS,> 100 µM
same,TGI,SF-295 CNS,> 100 µM
same,TGI,SF-539 CNS,> 100 µM
same,TGI,SK-MEL-2 melanoma,> 100 µM
same,TGI,SK-MEL-28 melanoma,> 100 µM
same,TGI,SK-MEL-5 melanoma,> 100 µM
same,TGI,SK-OV-3 ovarian,> 100 µM
same,TGI,SN12C renal,> 100 µM
same,TGI,SNB-19 CNS,> 100 µM
same,TGI,SNB-75 CNS,> 100 µM
same,TGI,SR leukemia,> 100 µM
same,TGI,SW-620 colon,> 100 µM
same,TGI,T-47D breast,> 100 µM
same,TGI,TK-10 renal,> 100 µM
same,TGI,U251 CNS,> 100 µM
same,TGI,UACC-257 melanoma,> 100 µM
same,TGI,UACC-62 melanoma,> 100 µM
same,TGI,UO-31 renal,> 100 µM
NC(=O)C(N)CC12CC3CC(CC(C3)C1)C2 (configuration not stated),TGI,786-0 renal,40.7 µM
same,TGI,A549 NSCLC,> 100 µM
same,TGI,ACHN renal,> 100 µM
same,TGI,CAKI-1 renal,> 100 µM
same,TGI,CCRF-CEM leukemia,63.7 µM
same,TGI,DU-145 prostate,33.7 µM
same,TGI,EKVX NSCLC,97.5 µM
same,TGI,HCC-2998 colon,49.3 µM
same,TGI,HCT-116 colon,30.7 µM
same,TGI,HCT-15 colon,> 100 µM
same,TGI,HOP-92 NSCLC,30.4 µM
same,TGI,HS 578T breast,42.6 µM
same,TGI,HT29 colon,72.6 µM
same,TGI,K-562 leukemia,> 100 µM
same,TGI,KM12 colon,47.8 µM
same,TGI,LOX IMVI melanoma,29.9 µM
same,TGI,M14 melanoma,37.4 µM
same,TGI,MCF7 breast,44.9 µM
same,TGI,MDA-MB-231 breast,41.7 µM
same,TGI,MDA-MB-435,44 µM
same,TGI,MDA-N,28.7 µM
same,TGI,MOLT-4 leukemia,58.1 µM
same,TGI,NCI-H23 lung,51.7 µM
same,TGI,NCI-H460 lung,> 100 µM
same,TGI,NCI-H522 lung,44.4 µM
same,TGI,NCI/ADR-RES ovarian,91.7 µM
same,TGI,OVCAR-4 ovarian,64.7 µM
same,TGI,OVCAR-5 ovarian,42.4 µM
same,TGI,OVCAR-8 ovarian,65.4 µM
same,TGI,PC-3 prostate,51.9 µM
same,TGI,RPMI-8226 leukemia,47.3 µM
same,TGI,RXF 393 renal,32.5 µM
same,TGI,SF-268 CNS,92.5 µM
same,TGI,SF-295 CNS,54.9 µM
same,TGI,SK-MEL-2 melanoma,55 µM
same,TGI,SK-MEL-28 melanoma,55.4 µM
same,TGI,SK-MEL-5 melanoma,28.5 µM
same,TGI,SK-OV-3 ovarian,> 100 µM
same,TGI,SN12C renal,41.2 µM
same,TGI,SNB-19 CNS,54.6 µM
same,TGI,SNB-75 CNS,> 100 µM
same,TGI,SR leukemia,43.5 µM
same,TGI,SW-620 colon,> 100 µM
same,TGI,TK-10 renal,85.3 µM
same,TGI,U251 CNS,34.7 µM
same,TGI,UACC-257 melanoma,76.7 µM
same,TGI,UACC-62 melanoma,28.3 µM
same,TGI,UO-31 renal,44.2 µM
